Laboratory results from patent publication US20240208994A1, “PLASMA KALLIKREIN INHIBITORS” (Merck Sharp & Dohme LLC, priority 2021, published 2024).

Assays:
human factor XIa = human factor XIa (Homo sapiens, UniProt P03951); test: Factor XIa Assay; type: biochemical; details: human factor XIa 0.04 nM, 30 min pre-incubation at 25° C., substrate GPR-AFC, pH 7.4, 60 min incubation; read-out: FXIa IC50
Description: (§1) The effectiveness of a compound of the present invention as an inhibitor of Coagulation factor XIa can be determined using a relevant purified serine protease, and an appropriate synthetic substrate. The rate of hydrolysis of the chromogenic or fluorogenic substrate by the relevant serine protease was measured both in the absence and presence of compounds of the present invention. Assays were conducted at rt or at 37° C. […] A decrease in the rate of fluorescence change in the presence of inhibitor is indicative of enzyme inhibition. Such methods are known to one skilled in the art. The results of this assay are expressed as the half-maximal inhibitory concentrations (IC50), or the inhibitory constant, Ki.
Compounds were pre-incubated for 30 min at 25° C. with human (0.04 nM) factor XIa in 50 mM HEPES buffer with 150 mM sodium chloride, 5 mM calcium chloride, 0.1% PEG 8000, pH 7.4. factor XIa enzymatic activity was determined by addition of the substrate glycine-proline-arginine-7-amido-4-trifluoromethylcoumarin (GPR-AFC) and measurement of the fluorescence at 400/505 nm after a 60 min incubation at 25° C. The % inhibition for each data point was calculated from the data and analyzed using the log (inhibitor) vs. response four parameters equation to determine the half-maximal inhibitory concentrations (IC50). The IC50 were converted to equilibrium inhibitory constants (Ki) using the Cheng-Prusoff equation.

Human plasma kallikrein = biological target: T1, Human plasma kallikrein (Homo sapiens, UniProt P03952); test: Plasma Kallikrein Assay; type: biochemical; details: purified Human plasma kallikrein 0.5 nM, substrate Acetyl-K-P-R-AFC, HEPES pH 7.4, fluorescence 405 Ex/510 Em; read-out: PKal IC50
T1 construct: yields a heavy chain (371 amino acids) and a light chain (248 amino acids); purchased Enzyme Research Laboratories
T1 sequence (P03952 391-638 limits assumed): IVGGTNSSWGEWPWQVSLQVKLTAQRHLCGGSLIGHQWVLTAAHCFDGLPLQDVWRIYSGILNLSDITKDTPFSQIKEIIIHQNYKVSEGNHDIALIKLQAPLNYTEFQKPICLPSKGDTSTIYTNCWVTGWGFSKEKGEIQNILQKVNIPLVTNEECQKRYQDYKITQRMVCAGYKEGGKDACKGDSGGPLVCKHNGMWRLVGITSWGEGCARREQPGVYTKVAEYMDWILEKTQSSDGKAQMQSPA
T1 sequence (P03952 20-390 partner limits assumed): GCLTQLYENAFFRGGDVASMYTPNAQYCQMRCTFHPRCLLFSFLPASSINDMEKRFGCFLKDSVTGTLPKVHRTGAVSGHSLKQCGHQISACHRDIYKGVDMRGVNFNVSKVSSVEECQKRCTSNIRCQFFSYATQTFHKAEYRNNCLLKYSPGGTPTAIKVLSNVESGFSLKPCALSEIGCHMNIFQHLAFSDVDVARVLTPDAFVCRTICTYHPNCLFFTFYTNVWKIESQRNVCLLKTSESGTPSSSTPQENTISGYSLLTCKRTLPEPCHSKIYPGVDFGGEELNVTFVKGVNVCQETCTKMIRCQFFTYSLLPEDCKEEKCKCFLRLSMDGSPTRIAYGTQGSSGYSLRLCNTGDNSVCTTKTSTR
Description: as §1, with “plasma kallikrein” for “Coagulation factor XIa”
Plasma kallikrein determinations were made in 50 mM HEPES buffer at pH 7.4 containing 150 mM NaCl, 5 mM CaCl2), and 0.1% PEG 8000 (polyethylene glycol: Fisher Scientific). Determinations were made using purified Human plasma kallikrein at a final concentration of 0.5 nM (Enzyme Research Laboratories) and the synthetic substrate, Acetyl-K-P-R-AFC (Sigma #C6608) at a concentration of […].
Activity assays were performed by diluting a stock solution of substrate at least tenfold to a final concentration ≤0.2 Km into a solution containing enzyme or enzyme equilibrated with inhibitor. Times required to achieve equilibration between enzyme and inhibitor were determined in control experiments. The reactions were performed under linear progress curve conditions and fluorescence increase measured at 405 Ex/510 Em nm. Values were converted to percent inhibition of the control reaction (after subtracting 100% Inhibition value). IC50 was determined by inflection point from a four parameter logistic curve fit. Ki was calculated using the Cheng Prusoff equation, Ki=IC50/(1+([S]/Km)).

human factor XIa, sequence (P03951 388-625 limits assumed): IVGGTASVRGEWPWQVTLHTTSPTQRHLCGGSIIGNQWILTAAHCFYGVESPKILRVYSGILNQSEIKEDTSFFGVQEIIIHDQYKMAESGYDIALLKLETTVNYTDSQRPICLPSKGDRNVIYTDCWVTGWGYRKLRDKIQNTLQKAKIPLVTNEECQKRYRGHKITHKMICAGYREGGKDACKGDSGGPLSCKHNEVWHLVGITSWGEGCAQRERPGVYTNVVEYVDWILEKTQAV
human factor XIa, sequence (P03951 19-387 partner limits assumed): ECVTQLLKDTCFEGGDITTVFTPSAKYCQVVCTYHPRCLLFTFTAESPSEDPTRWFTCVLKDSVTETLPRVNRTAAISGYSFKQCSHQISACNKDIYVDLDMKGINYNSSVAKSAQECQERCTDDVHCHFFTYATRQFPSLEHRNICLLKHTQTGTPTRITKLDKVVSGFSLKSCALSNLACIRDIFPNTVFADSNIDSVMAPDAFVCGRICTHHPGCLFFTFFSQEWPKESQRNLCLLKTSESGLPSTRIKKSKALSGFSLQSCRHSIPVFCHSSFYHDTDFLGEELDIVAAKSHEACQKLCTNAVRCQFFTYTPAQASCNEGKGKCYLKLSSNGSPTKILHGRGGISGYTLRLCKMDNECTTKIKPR

Row | SMILES | IC50 (human factor XIa) | IC50 (Human plasma kallikrein)
1 | Nc1cc(C2CCCCC2)nn1CC(=O)N1CC[C@@]2(C1)OC(=O)Nc1ccc(Cl)c(F)c12 [Example 52, (R)-1′-(2-(5-Amino-3-cyclohexy1-1H-pyrazol-1-yl)acetyl)-6-chloro-5-fluorospiro[benzo[d][1,3]oxazine-4,3′-pyrrolidin]-2(1H)-one] | 0.426 µM | 0.0207 µM
2 | Nc1c(F)c(-c2ccc(F)cc2F)nn1CC(=O)N1CCC[C@@]2(C1)OC(=O)Nc1ccc(Cl)c(F)c12 [Example 30, (R)-1′-(2-(5-Amino-3-(2,4-difluorophenyl)-4-fluoro-1H-pyrazol-1-yl)acetyl)-6-chloro-5-fluorospiro[benzo[d][1,3]oxazine-4,3'-piperidin]-2(1H)-one] | 0.164 µM | 0.0374 µM
3 | Cn1ncc(-c2cc(N)n(CC(=O)N3CC[C@@]4(C3)OC(=O)Nc3ccc(Cl)c(F)c34)n2)c1C(F)(F)F [Example 49, (R)-1′-(2-(5-Amino-1′-methyl-5′-(trifluoromethyl)-1H,1′H-[3,4′-bipyrazol]-1-yl)acetyl)-6-chloro-5-fluorospiro[benzo[d][1,3]oxazine-4,3′-pyrrolidin]-2(1H)-one] | 0.184 µM | 0.0014 µM
4 | Nc1c2c(nn1CC(=O)N1CCC[C@@]3(C1)OC(=O)Nc1ccc(Cl)c(F)c13)-c1ccccc1C2 [Example 18, (R)-1′-(2-(3-Aminoindeno[1,2-c]pyrazol-2(4H)-yl)acetyl)-6-chloro-5-fluorospiro[benzo[d][1,3]oxazine-4,3′-piperidin]-2(1H)-one] | 0.088 µM | 0.0024 µM
5 | Nc1cc(-c2ncc(F)cc2F)nn1CC(=O)N1CCC[C@@]2(C1)OC(=O)Nc1ccc(Cl)c(F)c12 [Example 32, (R)-1′-(2-(5-Amino-3-(3,5-difluoropyridin-2-y1)-1H-pyrazol-1-yl)acetyl)-6-chloro-5-fluorospiro[benzo [d][1,3]oxazine-4,3′-piperidin]-2(1H)-one] | 0.648 µM | 0.0057 µM
6 | Cc1cc(-c2cc(N)n(CC(=O)N3CC[C@@]4(C3)OC(=O)Nc3ccc(Cl)c(F)c34)n2)no1 [Example 60, (R)-1′-(2-(5-Amino-3-(5-methylisoxazol-3-y1)-1H-pyrazol-1-yl)acetyl)-6-chloro-5-fluorospiro[benzo[d][1,3]oxazine-4,3′-pyrrolidin]-2(1H)-one] | 0.862 µM | 0.0243 µM
7 | Nc1cc(-c2ccc(OC(F)F)cc2)nn1CC(=O)N1CC[C@@]2(C1)OC(=O)Nc1ccc(Cl)c(F)c12 [Example 66, (R)-1′-(2-(5-Amino-3-(4-(difluoromethoxy)pheny1)-1H-pyrazol-1-yl)acetyl)-6-chloro-5-fluorospiro[benzo[d] [1,3]oxazine-4,3′-pyrrolidin]-2(1H)-one] | 0.64 µM | 0.0103 µM
8 | Nc1cc(-c2ccc(F)cc2)nn1CC(=O)N1CCC[C@@]2(C1)OC(=O)Nc1ccc(Cl)c(F)c12 [Example 17, (R)-1′-(2-(5-Amino-3-(4-fluorophenyl)-1H-pyrazol-1-yl)acetyl)-6-chloro-5-fluorospiro[benzo[d][1,3]oxazine-4,3′-piperidin]-2(1H)-one] | 2.55 µM | 0.021 µM
9 | Nc1c(Cl)c(-c2ncccc2F)nn1CC(=O)N1CCC[C@@]2(C1)OC(=O)Nc1ccc(Cl)c(F)c12 [Example 34, (R)-1′-(2-(5-Amino-4-chloro-3-(3-fluoropyridin-2-y1)-1H-pyrazol-1-yl)acetyl)-6-chloro-5-fluorospiro[benzo[d][1,3]oxazine-4,3′-piperidin]-2(1H)-one] | 0.177 µM | 0.0089 µM
10 | COc1cccc(OC)c1-c1cc(N)n(CC(=O)N2CC[C@@]3(C2)OC(=O)Nc2ccc(Cl)c(F)c23)n1 [Example 51, (R)-1′-(2-(5-Amino-3-(2,6-dimethoxyphenyl)-1H-pyrazol-1-yl)acetyl)-6-chloro-5-fluorospiro[benzo[d][1,3]oxazine-4,3′-pyrrolidin]-2(1H)-one] | 1.77 µM | 0.0235 µM

Now from value to compound:

Row | IC50 (human factor XIa) | IC50 (Human plasma kallikrein) | SMILES
11 | 0.114 µM | 0.0154 µM | Nc1cc(-c2ccccc2)nn1CC(=O)N1CC[C@@]2(C1)OC(=O)Nc1ccc(Cl)c(F)c12 [Example 24, (R)-1′-(2-(5-Amino-3-phenyl-1H-pyrazol-1-yl)acetyl)-6-chloro-5-fluorospiro[benzo[d][1,3]oxazine-4,3'-pyrrolidin]-2(1H)-one]
12 | 0.165 µM | 0.0046 µM | Nc1cc(-c2ccccc2F)nn1CC(=O)N1CC[C@@]2(C1)OC(=O)Nc1ccc(Cl)c(F)c12 [Example 56, (R)-1′-(2-(5-Amino-3-(2-fluorophenyl)-1H-pyrazol-1-yl)acetyl)-6-chloro-5-fluorospiro[benzo[d][1,3]oxazine-4,3′-pyrrolidin]-2(1H)-one]
13 | 1.4 µM | 0.0078 µM | Nc1cc(-c2cc3ccccc3o2)nn1CC(=O)N1CC[C@@]2(C1)OC(=O)Nc1ccc(Cl)c(F)c12 [Example 48, (R)-1′-(2-(5-Amino-3-(benzofuran-2-y1)-1H-pyrazol-1-yl)acetyl)-6-chloro-5-fluorospiro[benzo[d][1,3]oxazine-4,3′-pyrrolidin]-2(1H)-one]
14 | 0.665 µM | 0.028 µM | Nc1cc(-c2ccccn2)nn1CC(=O)N1CC[C@@]2(C1)OC(=O)Nc1ccc(Cl)c(F)c12 [Example 38, (R)-1′-(2-(5-Amino-3-(pyridin-2-y1)-1H-pyrazol-1-yl)acetyl)-6-chloro-5-fluorospiro[benzo[d][1,3]oxazine-4,3′-pyrrolidin]-2(1H)-one]
15 | 0.19 µM | 0.0025 µM | Nc1cc(-c2ccccc2Br)nn1CC(=O)N1CC[C@@]2(C1)OC(=O)Nc1ccc(Cl)c(F)c12 [Example 57, (R)-1′-(2-(5-Amino-3-(2-bromophenyl)-1H-pyrazol-1-yl)acetyl)-6-chloro-5-fluorospiro[benzo[d][1,3]oxazine-4,3′-pyrrolidin]-2(1H)-one]
16 | 0.367 µM | 0.0127 µM | Nc1cc(-c2cccnn2)nn1CC(=O)N1CC[C@@]2(C1)OC(=O)Nc1ccc(Cl)c(F)c12 [Example 25, (R)-1′-(2-(5-Amino-3-(pyridazin-3-yl)-1H-pyrazol-1-yl)acetyl)-6-chloro-5-fluorospiro[benzo[d][1,3]oxazine-4,3′-pyrrolidin]-2(1H)-one]
17 | 0.613 µM | 0.0139 µM | N#Cc1ccc(-c2cc(N)n(CC(=O)N3CC[C@@]4(C3)OC(=O)Nc3ccc(Cl)c(F)c34)n2)cc1 [Example 63, (R)-4-(5-Amino-1-(2-(6-chloro-5-fluoro-2-oxo-1,2-dihydrospiro[benzo[d][1,3]oxazine-4,3′-pyrrolidin]-l′-xl)-2-oxoethyl)-1H-pyrazol-3-yl)benzonitrile]
18 | 1.56 µM | 0.0219 µM | Nc1cc(-c2ccc(Cl)cc2)nn1CC(=O)N1CC[C@@]2(C1)OC(=O)Nc1ccc(Cl)c(F)c12 [Example 65, (R)-1′-(2-(5-Amino-3-(4-chlorophenyl)-1H-pyrazol-1-yl)acetyl)-6-chloro-5-fluorospiro[benzo[d] [1,3]oxazine-4,3′-pyrrolidin]-2(1H)-one]
19 | 0.254 µM | 0.013 µM | Nc1cc(-c2cccs2)nn1CC(=O)N1CC[C@@]2(C1)OC(=O)Nc1ccc(Cl)c(F)c12 [Example 39, (R)-1′-(2-(5-Amino-3-(thiophen-2-y1)-1H-pyrazol-1-yl)acetyl)-6-chloro-5-fluorospiro[benzo[d] [1,3]oxazine-4,3′-pyrrolidin]-2(1H)-one]
